{"source": "patent US20240300882A1", "about": "“CRYSTALLINE FORMS OF A DIFFUSION ENHANCING COMPOUND” (DIFFUSION PHARMACEUTICALS LLC, priority 2021, published 2024)", "type_in_all_cases": "physicochemical", "key": {"[1]": {"test": "XRPD under a nitrogen stream of variable relative humidity", "method": "Form H from Example 25 is measured under different relative humidities. The humidity measurements are made on a powder diffractometer X'Pert, PANalytical (G.16.SYS.S006) using CuKα radiation. Measuring conditions: tube power 40 kV/40 mA, scan range 1°-50° (2θ), step size 0.02°, time per step 2.4 seconds. The sample is measured in a 0.4 mm deep sample holder in a closed chamber under a stream of nitrogen of variable relative humidity (RH). The humidity of the nitrogen stream is controlled by varying the relative amount of humid and dry nitrogen gas. The sample is first conditioned one hour with a dry nitrogen stream and then a first XPRD is taken. The humidity of the gas stream is then changed to 50% RH and the sample is conditioned three hours to the new RH prior to a second XRPD measurement. After 10 more hours with 50% RH, a third XRPD is taken."}, "[2]": {"test": "Equilibrium solubility shake-flask method, 24-hour slurry, XRPD result", "conditions": "water and ethanol", "method": "Solubility is evaluated using shake-flask method at room temperature. Individual samples are prepared as follows: Approximately 20 mg of TSC Forms A, F, and J are placed in a 1-dram glass vial. To each vial is added 1.5 mL of media. The vials are then placed in an incubation chamber at room temperature with shaking at 150 rpm. After 24 hours the vials are removed and each slurry is vacuum filtered. The mother liquor is diluted 1:10 with the respective media for that sample and analyzed by HPLC. Water used is HPLC grade. Ethanol used in absolute, HPLC grade."}, "[3]": {"test": "Dynamic vapor sorption (DVS) analysis", "conditions": "for Form by XRPD after DVS analysis: exposed up to 95% RH and down to 5% RH", "method": "DVS analysis is carried out using a TA Instruments Q5000 Dynamic Vapor Sorption analyzer. The instrument is calibrated with standard weights and a sodium bromide standard for humidity. Approximately 10-25 mg (e.g., 20 mg) or 5-15 mg of sample is loaded into a metal-coated quartz pan for analysis. The sample is analyzed at 25° C. with a maximum equilibration time of one hour in 10% relative humidity (RH) steps from 5 to 95% RH (adsorption cycle) and from 95 to 5% RH (desorption cycle). The movement from one step to the next occurred either after satisfying the equilibrium criterion of 0.01% weight change or, if the equilibrium criterion is not met, after one hour. The percent weight change values are calculated using Microsoft Excel®. The temperature for the DVS analysis may impact the outcome of the results."}, "[4]": {"test": "Solid-state stability in relative humidity jars, analysed by XRPD", "conditions": "up to 4 weeks at 25° C./60% RH and 40° C./75% RH", "method": "The solid-state stability of TSC Crystalline Forms A and F are evaluated at 25° C./60% relative humidity (RH) and 40° C./75% RH.\nTo a 1-dram glass vial is added approximately 20 mg of TSC Crystalline Form A or F. The open vials are placed in relative humidity (RH) jars. The RH in each jar is controlled by a saturated salt solution (sodium bromide for 60% RH and sodium chloride for 75% RH). The RH jars are purged with nitrogen and sealed. The sealed RH jars are placed in ovens set at the appropriate temperatures. The materials are analyzed at given time points by XRPD."}, "[5]": {"test": "Heating to 100° C. in a TG furnace, then XRPD", "conditions": "Heat to 100° C., hold 1 minute", "method": "Crystalline Forms A and B are heated to 100° C. in a TG furnace, held at that temperature for 1 minute, and immediately analyzed by XRPD."}, "[6]": {"test": "Competitive slurry experiments, wet solid analysed by XRPD", "method": "Sample preparation is carried out in a nitrogen glove box. Saturated solutions of TSC from Example 2 are prepared at a given temperature. The volume of each solution is about 1.5 mL and it is deemed saturated if excess solid remains after stirring for 2 hours. The sample is then centrifuged and the mother liquor is transferred to a vial containing equal amounts of each polymorph, about 10 mg each. The vials are capped and sealed with parafilm, and the slurries are then stirred magnetically at a given temperature for 5 days. Each sample is then centrifuged, the mother liquor decanted, and the wet solid immediately analyzed by XRPD.\nCompetitive slurry experiments involving Crystalline Forms A through E are carried out at three different temperatures using three different solvent systems (Table 2). […] At 50° C., the slurries in 1:1 acetone:water and 1:1 acetonitrile:water produce a mixture of Crystalline Forms A and B and Crystalline Form A, respectively. Although both solvent systems contain significant amounts of water, the slurries are carried out at a temperature at which Crystalline Form B is known to lose volatiles. […] That is probably the reason that Crystalline Form A results from the higher-temperature slurries in water-containing solvents.\nAdditional competitive slurry experiments are carried out between Crystalline Forms A, B, and F (Table 3). The data are consistent with the results in Example 10. […] The elevated temperature aqueous slurry data is also consistent with Example 10. Crystalline Form A is observed in aqueous media at 50° C. In the case of the 1:1 ethanol:water slurry, the XRPD pattern of the resulting material matches that of Crystalline Form A but contains several unidentified peaks."}, "[7]": {"test": "Physical stability of Crystalline Form F under slurry conditions, XRPD", "conditions": "anhydrous ethanol and ethanol with 1 and 5% water, ambient temperature, up to 4 days", "method": "The physical stability of Crystalline Form F is evaluated when it is slurried in three solvent systems (anhydrous ethanol and ethanol containing both 1 and 5% water by volume) at ambient temperature.\nTo a 1-dram glass vial is added approximately 20 mg of TSC Crystalline Form F and 1 mL of a given solvent. The slurry is stirred at room temperature for a given amount of time. The vial is then centrifuged, the mother liquor decanted, and the wet solid is analyzed by XRPD."}}}
{"molecule": "CC(/C=C/C=C(\\C)C(=O)[O-])=C\\C=C\\C=C(C)\\C=C\\C=C(/C)C(=O)[O-].[Na+].[Na+]", "note": "[Form H, trans sodium crocetinate]", "values": [{"measurement": "Form on exposure to different relative humidities", "setting": "[1]", "value": "changes form"}, {"measurement": "Form by XRPD after humidity exposure", "setting": "[1]; 0% RH, dry nitrogen stream, one hour", "value": "Form G"}, {"measurement": "Form by XRPD after humidity exposure", "setting": "[1]; 50% RH, 10 more hours (third XRPD)", "value": "no difference between the second and third XRPDs"}, {"measurement": "Form by XRPD after humidity exposure", "setting": "[1]; 50% RH, three hours", "value": "Form E"}]}
{"molecule": "trans sodium crocetinate [Crystalline Form J]", "values": [{"measurement": "Form after 24-hour slurry experiments", "setting": "[2]", "value": "exhibits form conversion"}]}
{"molecule": "CC(/C=C/C=C(\\C)C(=O)[O-])=C\\C=C\\C=C(C)\\C=C\\C=C(/C)C(=O)[O-].[Na+].[Na+]", "note": "[Example 20, trans sodium crocetinate]", "values": [{"measurement": "Form by XRPD after DVS analysis", "setting": "[3]", "value": "remains unchanged"}]}
{"molecule": "trans sodium crocetinate [Crystalline Form A]", "values": [{"measurement": "Solid-state stability of the form", "setting": "[4]", "value": "remain unchanged"}, {"measurement": "XRPD pattern after heating", "setting": "[5]", "value": "remains unchanged"}, {"measurement": "Relative stability of the forms", "setting": "[6]; between 2 and 50° C. in methanol", "value": "more stable than Forms B through E"}, {"measurement": "Relative stability of the forms", "setting": "[6]; between 2 and 55° C. in absolute ethanol and absolute ethanol containing either 10% methanol or toluene", "value": "more stable than Forms B through F"}, {"measurement": "Relative stability of the forms", "setting": "[6]; non-aqueous conditions", "value": "most stable form"}, {"measurement": "Form after 24-hour slurry experiments", "setting": "[2]", "value": "remain unchanged"}, {"measurement": "maximum water absorption", "setting": "[3]; DVS, 25° C., 5 to 95% RH", "value": "about 2.5%"}, {"measurement": "Form by XRPD after DVS analysis", "setting": "[3]", "value": "remains unchanged"}]}
{"molecule": "CC(/C=C/C=C(\\C)C(=O)[O-])=C\\C=C\\C=C(C)\\C=C\\C=C(/C)C(=O)[O-].[Na+].[Na+]", "note": "[Crystalline Form B, trans sodium crocetinate]", "values": [{"measurement": "XRPD pattern after heating", "setting": "[5]", "value": "converts to Crystalline Form F"}, {"measurement": "Relative stability of the forms", "setting": "[6]; aqueous conditions", "value": "most stable form"}, {"measurement": "Relative stability of the forms", "setting": "[6]; between 2 and 55° C. in 1:1 ethanol:water (v/v)", "value": "more stable than Forms A, C, D, E, and F"}]}
{"molecule": "trans sodium crocetinate [Crystalline Form F]", "values": [{"measurement": "Solid-state stability of the form", "setting": "[4]", "value": "remain unchanged"}, {"measurement": "Physical stability of the form when slurried", "setting": "[7]", "value": "remains unchanged"}, {"measurement": "Form after 24-hour slurry experiments", "setting": "[2]", "value": "remain unchanged"}, {"measurement": "Form by XRPD after DVS analysis", "setting": "[3]", "value": "remains unchanged"}]}
